Data from patent US10532040B2, “Methods of treating cancer with herbacetin” (REGENTS OF THE UNIVERSITY OF MINNESOTA, priority 2011, dated 2020).
“Also recorded” adds a separate entry of the source.

Experiments:
C57BL/6J-ApcMin+ mice = test: APCMin+ mouse colon cancer prevention pilot study, IP, 15 weeks; type: in vivo
Procedure: The anti-cancer effect of herbacetin in vivo has also been shown. Herbacetin prevents colon cancer development in […]57BL/6J-ApcMin+ were divided into […] and injected IP with vehicle or 1 of 2 amounts of herbacetin in vehicle. The doses included 0, 0.4, or 2 mg/kg B.W. herbacetin injected IP (n=15 total, 5 per group; Table 1). APC-min mice were 5 weeks old at the beginning of the study and received herbacetin for 15 weeks 5 days/week.

APC^min+ mice = test: APC^min+ mouse model, 8 weeks; type: in vivo
Text: Male C57BL/6J^(Min/+) mice were obtained from Jackson Laboratory and maintained under “specific pathogen-free” conditions according to the guidelines established by the University of Minnesota Institutional Animal Care and Use Committee. APC^min+ male mice were bred with C57BL/6J APC wildtype female mice. The progeny were genotyped by PCR assay to determine whether they were heterozygous for the min allele or were homozygous wildtype. APC^min+ male or female progeny were randomly assigned to groups after weaning at 3 weeks. Mice (5˜6 weeks old) were divided into 4 groups: 1) untreated vehicle group (n=12); 2) mice treated with 0.4 mg herbacetin/kg of body weight (n=13); 3) mice treated with 2 mg herbacetin/kg of body weight (n=13); and mice treated with 100 mg difluoromethylornithine (DFMO)/kg of body weight (n=10). Herbacetin, DFMO, or vehicle was injected 3 times a week for 8 weeks.

ODC [1] = biological target: T1, ODC (Homo sapiens, UniProt P11926); test: pull-down assay with herbacetin-conjugated Sepharose 4B beads (recombinant ODC or HCT116 lysate); type: binding; conditions: recombinant ODC protein or HCT116 cell lysate, Western blot
T1 sequence (P11926 1-461): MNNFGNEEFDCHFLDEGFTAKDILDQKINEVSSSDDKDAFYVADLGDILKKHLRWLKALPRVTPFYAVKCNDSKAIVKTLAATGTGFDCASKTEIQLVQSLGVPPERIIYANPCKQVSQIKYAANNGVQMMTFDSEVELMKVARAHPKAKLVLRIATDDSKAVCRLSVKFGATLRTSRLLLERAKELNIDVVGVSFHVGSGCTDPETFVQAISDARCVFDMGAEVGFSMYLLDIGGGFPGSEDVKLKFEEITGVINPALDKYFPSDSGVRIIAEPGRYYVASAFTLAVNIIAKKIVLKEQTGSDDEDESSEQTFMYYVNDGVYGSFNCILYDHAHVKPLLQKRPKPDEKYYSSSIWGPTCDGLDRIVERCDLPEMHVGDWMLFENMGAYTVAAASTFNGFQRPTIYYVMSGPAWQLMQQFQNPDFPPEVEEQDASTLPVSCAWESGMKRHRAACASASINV
Procedure: A recombinant human ODC protein (200 ng) or total cell lysates (500 μg) to were incubated with herbacetin Sepharose 4B (or Sepharose 4B only as a control) beads (50 μl, 50% slurry) in reaction buffer (50 mM Tris pH 7.5, 5 mM EDTA, 150 mM NaCl, 1 mM DTT, 0.01% NP40, 2 μg/mL bovine serum albumin). After incubation with gentle rocking overnight at 4° C., the beads were washed 5 times with buffer (50 mM Tris pH 7.5, 5 mM EDTA, 150 mM NaCl, 1 mM DTT, 0.01% NP40) and binding was determined by Western blotting.

[2] = system: HCT116 colon cancer cells; test: cDNA microarray of HCT116 colon cancer cells; type: cell-based; conditions: HCT116, 1 or 2 days herbacetin
Procedure: FIGS. 7A-7D. Profiling of gene expression in HCT116 colon cancer cells treated with herbacetin 1 or 2 days was assessed by microarray. […] (d) RT-PCR validation of differentially expressed genes.
RNA samples from cells treated or not treated for 1 or 2 days with herbacetin were used. Data were analyzed using hierarchical clustering and the DAVID database as previously described (Sturn, A., Quackenbush, J. & Trajanoski, Z. Genesis: cluster analysis of microarray data. Bioinformatics 18, 207-208 (2002); Huang da, W., Sherman, B. T. & Lempicki, R. A. Systematic and integrative analysis of large gene lists using DAVID bioinformatics resources. Nat Protoc 4, 44-57 (2009)).

[3] = system: SKH-1 hairless mice, DMBA/TPA-induced skin tumors; test: DMBA/TPA two-stage skin carcinogenesis mouse model, 20 weeks; type: in vivo
Text: Hairless SKH:HR-1-hrBr (SKH-1) mice were obtained from Charles River and were maintained under “specific pathogen-free” conditions following the guidelines established by the University of Minnesota Institutional Animal Care and Use Committee. Mice (8˜9 weeks old) were divided into five groups: 1) DMBA+vehicle group (n=20); 2) DMBA-initiated (200 nmol) and TPA-promoted group (17 nmol; n=20); 3) DMBA/TPA+100 nmol of herbacetin (n=20) group; 4) DMBA/TPA+500 nmol of herbacetin group (n=20); 5) DMBA+500 nmol of herbacetin group (n=20). One week after initiation, 17 nmol of TPA in acetone was topically applied twice weekly until the termination of the experiment at 20 weeks. When used, each dose of herbacetin was dissolved in 0.2 ml of 10% H2O in acetone and then topically applied to dorsal mouse skin at 30 min before TPA treatment. The number and volume of tumors per mouse was recorded weekly. The results are expressed as the percent of mice with tumors (incidence), average tumor volumes (size) and average number of tumors per mouse (multiplicity).

ODC [4] = biological target: T1, ODC; test: ODC enzyme assay with recombinant ODC protein; type: biochemical; conditions: in vitro
Procedure: FIGS. 5A-5E. The effect of herbacetin on ODC activity was assessed in (a) DLD-1 and (b) HCT116 colon cancer cells. Cell lysates were incubated for 15 min with reaction buffer and different doses of herbacetin or DFMO and then incubated at 37° C. for 1 h. Herbacetin (c) and kaempferol (d) were modeled as allosteric inhibitors with the ODC crystal structure. (e) The effect of herbacetin or kaempferol on ODC activity was assessed using a human ODC recombinant protein. Each reaction was incubated at 37° C. for 1 h and ODC activity was measured as the release of CO2 from L-[1-C^14] ornithine. Data are represented as means±S.D. of triplicate values. The asterisk (*) indicates a significant difference (p<0.05) between herbacetin-treated samples compared to untreated or kaempferol-treated samples.
ODC activity was measured as the release of CO2 from L-[1-C^14] ornithine as previously described ([…]).

[5] = 0.4 or 2 mg/kg BW IP, 15 weeks, 5 days/week
[6] = herbacetin 0.4 or 2 mg/kg, DFMO 100 mg/kg, 3 times/week for 8 weeks, vs vehicle
[7] = herbacetin 100 or 500 nmol topical before TPA, relative to TPA-treated group

O=c1c(O)c(-c2ccc(O)cc2)oc2c(O)c(O)cc(O)c12 [herbacetin, 3,5,7,8,4′-Pentahydroxyflavone]
colon tumor number (C57BL/6J-ApcMin+ mice; [5]): fewer
colon tumor size (C57BL/6J-ApcMin+ mice; [5]): smaller
body weight (C57BL/6J-ApcMin+ mice; APCMin+ mice): no effect
anemia (bloody stools) (APC^min+ mice; 0.4 or 2 mg/kg, 8 weeks): seemed to reduce anemia
tolerability: signs of toxicity, body weight loss (APC^min+ mice; 8 weeks treatment): without overt signs of toxicity or significant body weight loss
polyp number (APC^min+ mice; [6]): significantly suppressed
polyp size (APC^min+ mice; [6]): significantly suppressed
overall appearance of mice (APC^min+ mice; vs vehicle- or DFMO-treated mice): appeared healthier
binding to ODC (ODC [1]): directly binds to ODC; also recorded: bind to ornithine decarboxylase (ODC)
gene expression [2]: significantly altered genes involved in proliferation, cell cycle, apoptosis and metabolic processes
tumors in herbacetin only (no TPA) group ([3]; DMBA + 500 nmol herbacetin, no TPA): No tumors were observed
ODC activity in skin tumors ([3]; TPA-induced skin tumor tissue): significantly inhibited ODC activity
number of skin tumors [3, 7]: strongly suppressed
volume of skin tumors [3, 7]: strongly suppressed
ODC downstream proteins such as ERK and RSK in skin tumors ([3]; immunoblot of TPA-induced skin tumors): strongly suppressed
ODC activity (release of CO2 from L-[1-C^14] ornithine) (ODC [4]): inhibited ODC activity similarly
